# Biological target: T1, recombinant human mGluR2 (Homo sapiens, UniProt Q14416)
# T1 construct: expressed in transfected cells
# Experiment: FLIPR Ca2+ mobilization assay, potentiation of glutamate (EC20) response
# Assay type: cell-based
# Conditions: CHO dhfr- cells expressing human mGluR2 and Gα16; potentiation with EC20 glutamate (900 nM); read-out: Representative FLIPR EC50 Values
# Method: Potencies are determined as follows. The compounds of the present invention may be tested in a fluorescence laser imaging plate reader (FLIPR) based assay. This assay is a common functional assay to monitor Ca^2+ mobilization in whole cells expressing recombinant receptor coupled with a promiscuous G-protein. CHO dhfr− cells stably expressing recombinant human mGluR2 and Gα16 loaded with Fluo-4 AM (Invitrogen, Carlsbad Calif.) are treated with varying concentrations of compounds and the Ca^2+ response is monitored on a FLIPR384 (Molecular Devices, Sunnydale Calif.) for agonist activity. The potentiation response is monitored after a subsequent addition of an EC20 concentration of glutamate (900 nM). The maximum calcium response at each concentration of compound for agonism or potentiation are plotted as dose responses curves fitted with a four parameters logistic equation giving EC50 and Hill coefficient using the iterative non linear curve fitting software program.
# T1 sequence (Q14416 19-872): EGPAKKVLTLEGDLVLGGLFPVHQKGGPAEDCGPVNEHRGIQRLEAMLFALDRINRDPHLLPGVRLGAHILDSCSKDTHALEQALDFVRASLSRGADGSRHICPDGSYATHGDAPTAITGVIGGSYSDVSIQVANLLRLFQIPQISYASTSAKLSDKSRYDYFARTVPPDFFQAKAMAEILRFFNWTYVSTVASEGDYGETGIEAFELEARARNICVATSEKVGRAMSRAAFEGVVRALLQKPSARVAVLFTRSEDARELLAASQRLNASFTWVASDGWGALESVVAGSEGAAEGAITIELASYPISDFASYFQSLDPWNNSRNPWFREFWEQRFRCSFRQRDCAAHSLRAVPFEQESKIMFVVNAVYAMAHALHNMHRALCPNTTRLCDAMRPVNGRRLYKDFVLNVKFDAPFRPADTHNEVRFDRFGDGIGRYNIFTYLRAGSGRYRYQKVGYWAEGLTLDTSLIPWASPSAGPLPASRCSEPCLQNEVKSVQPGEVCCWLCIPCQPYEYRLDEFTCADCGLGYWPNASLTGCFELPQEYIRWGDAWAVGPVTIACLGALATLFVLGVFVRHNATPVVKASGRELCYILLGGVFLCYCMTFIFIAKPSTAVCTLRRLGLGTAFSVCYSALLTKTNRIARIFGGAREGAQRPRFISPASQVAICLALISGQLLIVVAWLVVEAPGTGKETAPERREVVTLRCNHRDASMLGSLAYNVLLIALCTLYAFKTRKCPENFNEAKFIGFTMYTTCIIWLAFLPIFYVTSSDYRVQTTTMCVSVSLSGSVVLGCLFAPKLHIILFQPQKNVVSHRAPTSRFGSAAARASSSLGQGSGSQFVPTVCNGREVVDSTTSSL
row,Structure (SMILES),EC50 [nM]
1,"CC(O)c1cccnc1Oc1ccc2c(nnn2CC2CC2)c1C(F)(F)F (racemic) [Example 418, (±)-1-(2-{[1-(cyclopropylmethyl)-4-(trifluoromethyl)-1H-benzotriazol-5-yl]oxy}pyridin-3-yl)ethanol]",49
2,"OCC(O)c1cccnc1Oc1ccc2c(nnn2CC2CC2)c1Br (centres unmarked) [Example 52, 1-(2-{[4-bromo-1-(cyclopropylmethyl)-1H-benzotriazol-5-yl]oxy}pyridin-3-yl)ethane-1,2-diol]",814
3,"COCC(OC)c1cccnc1Oc1ccc2c(nnn2CC2CC2)c1Br (centres unmarked) [Example 55, 4-bromo-1-(cyclopropylmethyl)-5-{[3-(1,2-dimethoxyethyl)pyridin-2-yl]oxy}-1H-benzotriazole]",95
4,"CC(C)(C)Cn1nnc2c(Br)c(Oc3ncccc3C(F)(F)F)ccc21 [Example 111, 4-bromo-1-(2,2-dimethylpropyl)-5-{[3-(trifluoromethyl)pyridin-2-yl]oxy}-1H-benzotriazole]",64
5,"Cc1cccnc1Oc1ccc2c(nnn2CC(C)(C)C)c1Br [Example 122, 4-bromo-1-(2,2-dimethylpropyl)-5-[(3-methylpyridin-2-yl)oxy]-1H-benzotriazole]",80
6,"CC(O)c1ncccc1Oc1ccc2c(nnn2CC(C)(C)C)c1Br (centres unmarked) [Example 151, 1-(3-{[4-bromo-1-(2,2-dimethylpropyl)-1H-benzotriazol-5-yl]oxy}pyridin-2-yl)ethanol]",122
7,"Cn1cc(-c2cnc(Oc3ccc4c(nnn4CC(C)(C)C)c3Br)c(C#N)c2)cn1 [Example 169, 2-{[4-bromo-1-(2,2-dimethylpropyl)-1H-benzotriazol-5-yl]oxy}-5-(1-methyl-1H-pyrazol-4-yl)pyridine-3-carbonitrile]",425
8,"FCC1CCN(Cc2cccnc2Oc2ccc3c(nnn3CC3CC3)c2Br)C1 (centres unmarked) [Example 215, 4-bromo-1-(cyclopropylmethyl)-5-[(3-{[3-(fluoromethyl)pyrrolidin-1-yl]methyl}pyridin-2-yl)oxy]-1H-benzotriazole]",129
9,"CC1(O)CCN(Cc2cccnc2Oc2ccc3c(nnn3CC3CC3)c2Br)CC1 [Example 227, 1-[(2-{[4-bromo-1-(cyclopropylmethyl)-1H-benzotriazol-5-yl]oxy}pyridin-3-yl)methyl]-4-methylpiperidin-4-ol]",705
10,"CC(=O)N1CCCN(Cc2cc(F)cnc2Oc2ccc3c(nnn3CC3CC3)c2Br)CC1 [Example 253, 5-({3-[(4-acetyl-1,4-diazepan-1-yl)methyl]-5-fluoropyridin-2-yl}oxy)-4-bromo-1-(cyclopropylmethyl)-1H-benzotriazole]",52
11,"O=C(NCc1cc(F)cnc1Oc1ccc2c(nnn2CC2CC2)c1Br)c1ccon1 [Example 284, N-[(2-{[4-bromo-1-(cyclopropylmethyl)-1H-benzotriazol-5-yl]oxy}-5-fluoropyridin-3-yl)methyl]isoxazole-3-carboxamide]",64
12,"CC(C)(O)c1cccnc1Oc1ccc2c(nnn2CC2CC2)c1Cl [Example 396, 2-(2-{[4-chloro-1-(cyclopropylmethyl)-1H-benzotriazol-5-yl]oxy}pyridin-3-yl)propan-2-ol]",556
13,"OC(CF)(CF)c1cccnc1Oc1ccc2c(nnn2CC2CC2)c1Cl [Example 398, 2-(2-{[4-chloro-1-(cyclopropylmethyl)-1H-benzotriazol-5-yl]oxy}pyridin-3-yl)-1,3-difluoropropan-2-ol]",556
14,"OC1(c2cccnc2Oc2ccc3c(nnn3CC3CC3)c2Cl)CCC(C(F)(F)F)CC1 (centres unmarked) [Example 411, 1-(2-{[4-chloro-1-(cyclopropylmethyl)-1H-benzotriazol-5-yl]oxy}pyridin-3-yl)-4-(trifluoromethyl) cyclohexanol]",257
15,"CC(C)(C)Cn1nnc2c(Br)c(Oc3ccncc3)ccc21 [compound 423, 4-bromo-1-(2,2-dimethylpropyl)-5-pyridin-4-yloxy-1H-benzotriazole]",141

# Stronger by EC50, values ahead:
row,EC50 [nM],Structure (SMILES)
1,2,"CC1CN(Cc2cc(F)cnc2Oc2ccc3c(nnn3CC3CC3)c2Br)CCN1S(C)(=O)=O (stereo in doubt) [Example 290, 4-bromo-1-(cyclopropylmethyl)-5-[(5-fluoro-3-{[(3R)-3-methyl-4-(methylsulfonyl)piperazin-1-yl]methyl}pyridin-2-yl)oxy]-1H-benzotriazole]"
2,5,"CC(C)(C)C(O)c1cccnc1Oc1ccc2c(nnn2CC2CC2)c1Br (centres unmarked) [Example 72, 1-(2-{[4-bromo-1-(cyclopropylmethyl)-1H-benzotriazol-5-yl]oxy}pyridin-3-yl)-2,2-dimethylpropan-1-ol]"
3,6,"CC(C)(C)C(O)c1cccnc1Oc1ccc2c(nnn2CC2CC2)c1Br (centres unmarked) [Example 91, 1-(2-{[4-bromo-1-(cyclopropylmethyl)-1H-benzotriazol-5-yl]oxy}pyridin-3-yl)-2,2-dimethylpropan-1-ol]"
4,11,"OC(c1cccnc1Oc1ccc2c(nnn2CC2CC2)c1Br)C1CC1 (centres unmarked) [Example 93, (2-{[4-bromo-1-(cyclopropylmethyl)-1H-benzotriazol-5-yl]oxy}pyridin-3-yl)(cyclopropyl)methanol]"
5,23,"CC(C)(C)Cn1nnc2c(Br)c(Oc3cccc(Br)n3)ccc21 [Example 148, 4-bromo-5-[(6-bromopyridin-2-yl)oxy]-1-(2,2-dimethylpropyl)-1H-benzotriazole]"
6,21,"CCC(O)c1cccnc1Oc1ccc2c(nnn2CC(C)(C)C)c1Br (centres unmarked) [Example 184, 1-(2-{[4-bromo-1-(2,2-dimethylpropyl)-1H-benzotriazol-5-yl]oxy}pyridin-3-yl)propan-1-ol]"
7,32,"FC1(F)CCN(Cc2cccnc2Oc2ccc3c(nnn3CC3CC3)c2Br)CC1 [Example 194, 4-Bromo-1-(cyclopropylmethyl)-5-({3-[(4,4-difluoropiperidin-1-yl)methyl]pyridin-2-yl}oxy)-1H-benzotriazole]"
8,3,"CS(=O)(=O)N1CCN(Cc2cc(Cl)cnc2Oc2ccc3c(nnn3CC3CC3)c2Br)CC1 [Example 198, 4-bromo-5-[(5-chloro-3-{[4-(methylsulfonyl)piperazin-1-yl]methyl}pyridin-2-yl)oxy]-1-(cyclopropylmethyl)-1H-benzotriazole]"
9,39,"FC1(F)CCCN(Cc2cccnc2Oc2ccc3c(nnn3CC3CC3)c2Br)C1 [Example 204, 4-bromo-1-(cyclopropylmethyl)-5-({3-[(3,3-difluoropiperidin-1-yl)methyl]pyridin-2-yl}oxy)-1H-benzotriazole]"
10,40,"FC(F)(F)CNCc1cccnc1Oc1ccc2c(nnn2CC2CC2)c1Br [Example 213, N-[(2-{[4-bromo-1-(cyclopropylmethyl)-1H-benzotriazol-5-yl]oxy}pyridin-3-yl)methyl]-2,2,2-trifluoroethanamine]"
11,8,"CS(=O)(=O)N1CCCN(Cc2cc(Cl)cnc2Oc2ccc3c(nnn3CC3CC3)c2Br)CC1 [Example 280, 4-bromo-5-[(5-chloro-3-{[4-(methylsulfonyl)-1,4-diazepan-1-yl]methyl}pyridin-2-yl)oxy]-1-(cyclopropylmethyl)-1H-benzotriazole]"
12,19,"CC(C)(C)OC(=O)N1C[C@@H]2C[C@H]1CN2Cc1cc(Cl)cnc1Oc1ccc2c(nnn2CC2CC2)c1Br [Example 297, tert-butyl(1S,4S)-5-[(2-{[4-bromo-1-(cyclopropylmethyl)-1H-benzotriazol-5-yl]oxy}-5-chloropyridin-3-yl)methyl]-2,5-diazabicyclo[2.2.1] heptane-2-carboxylate]"
13,5,"Clc1cnc(Oc2ccc3c(nnn3CC3CC3)c2Br)c(CN2CCN(c3nccs3)CC2)c1 [Example 320, 4-bromo-5-[(5-chloro-3-{[4-(1,3-thiazol-2-yl)piperazin-1-yl]methyl}pyridin-2-yl)oxy]-1-(cyclopropylmethyl)-1H-benzotriazole]"
14,13,"OCC1C2CN(Cc3cc(Cl)cnc3Oc3ccc4c(nnn4CC4CC4)c3Br)CC12 (centres unmarked) [Example 357, {3-[(2-{[4-bromo-1-(cyclopropylmethyl)-1H-benzotriazol-5-yl]oxy}-5-chloropyridin-3-yl)methyl]-3-azabicyclo[3.1.0]hex-6-yl}methanol]"
15,8,"CS(=O)(=O)NC1CCN(Cc2cc(Cl)cnc2Oc2ccc3c(nnn3CC3CC3)c2Br)CC1 [Example 365, N-{1-[(2-{[4-bromo-1-(cyclopropylmethyl)-1H-benzotriazol-5-yl]oxy}-5-chloropyridin-3-yl)methyl]piperidin-4-yl}methanesulfonamide]"
16,8,"Clc1cnc(Oc2ccc3c(nnn3CC3CC3)c2Br)c(CN2CC(n3cccn3)C2)c1 [Example 384, 4-bromo-5-[(5-chloro-3-{[3-(1H-pyrazol-1-yl)azetidin-1-yl]methyl}pyridin-2-yl)oxy]-1-(cyclopropylmethyl)-1H-benzotriazole]"
17,20,"OC(c1cccnc1Oc1ccc2c(nnn2CC2CC2)c1C(F)(F)F)C1CC1 (centres unmarked) [Example 421, cyclopropyl(2-{[1-(cyclopropylmethyl)-4-(trifluoromethyl)-1H-benzotriazol-5-yl]oxy}pyridin-3-yl)methanol]"
